Reference: ChEMBL document CHEMBL1201862, “PubChem BioAssay data set” (2004)
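Five concentrations, 48 hours, 96-well plates. GI50 = concentration required for 50% inhibition of growth.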 The source made the active and inactive calls. Cut-off read from the data, not from the text of the source: active = GI50 up to about 1.1 µM and inactive = higher.

Assays:
Experiment in all cases: inhibition of tumour cell growth, NCI panel, 48 h
HCC 2998 = test system: HCC 2998
OVCAR-3 = test system: OVCAR-3
DU-145 = test system: DU-145
UACC-62 = test system: UACC-62
HCT-116 = test system: HCT-116
NCI-H522 = test system: NCI-H522
SN12C = test system: SN12C
SK-MEL-28 = test system: SK-MEL-28
786-0 = test system: 786-0
KM12 = test system: KM12
U-251 = test system: U-251
EKVX = test system: EKVX
SF-295 = test system: SF-295
MDA-MB-231 = test system: MDA-MB-231
MCF7 = test system: MCF7
SNB-19 = test system: SNB-19
UACC-257 = test system: UACC-257
OVCAR-4 = test system: OVCAR-4
PC-3 = test system: PC-3
HOP-92 = test system: HOP-92

Measured: GI50

O=C(Nc1cccc2ccccc12)c1ccccc1
inactive: HCC 2998 > 100 µM | OVCAR-3 11.8 µM | DU-145 > 100 µM | UACC-62 86.7 µM | HCT-116 > 100 µM | NCI-H522 68.7 µM | SN12C > 100 µM | SK-MEL-28 > 100 µM | 786-0 > 100 µM | KM12 > 100 µM | U-251 > 100 µM | EKVX > 100 µM | SF-295 > 100 µM | MDA-MB-231 > 100 µM | MCF7 8.89 µM | SNB-19 > 100 µM | UACC-257 > 100 µM | OVCAR-4 24.5 µM | PC-3 72.3 µM

CCOC(=O)C1C(c2ccccc2)C2(C#N)C(=N)OC1(C)C2(C#N)C#N (centres undefined)
inactive: HCC 2998 13.8 µM | DU-145 30.6 µM | UACC-62 27 µM | HOP-92 20 µM | HCT-116 16.3 µM | SN12C > 10 µM | 786-0 13.6 µM | KM12 > 10 µM | U-251 28.7 µM | EKVX 21.1 µM | SF-295 36.2 µM | MDA-MB-231 10.9 µM | MCF7 46.8 µM | SNB-19 40.6 µM | UACC-257 20.5 µM | PC-3 25.6 µM

CN(C)C1(N(C)C)Oc2c(c(=O)n(C)c(=O)n2C)C(c2ccc(Br)cc2)C1(F)F (centres undefined)
inactive: HCC 2998 > 100 µM | OVCAR-3 > 100 µM | DU-145 > 100 µM | UACC-62 > 100 µM | HOP-92 82.4 µM | HCT-116 > 100 µM | SK-MEL-28 > 100 µM | 786-0 > 100 µM | KM12 > 100 µM | U-251 > 100 µM | EKVX > 100 µM | SF-295 > 100 µM | MDA-MB-231 > 100 µM | MCF7 > 100 µM | SNB-19 > 100 µM | UACC-257 > 100 µM | OVCAR-4 > 100 µM | PC-3 > 100 µM

Cn1nc2ccc3nccc(N4CCN(CCO)CC4)c3c2n1
inactive: HCC 2998 > 100 µM | OVCAR-3 > 100 µM | DU-145 > 100 µM | UACC-62 > 100 µM | HCT-116 > 100 µM | NCI-H522 > 100 µM | SN12C > 100 µM | SK-MEL-28 > 100 µM | 786-0 > 100 µM | KM12 > 100 µM | U-251 > 100 µM | SF-295 > 100 µM | MDA-MB-231 > 100 µM | MCF7 > 100 µM | SNB-19 > 100 µM | UACC-257 > 100 µM | OVCAR-4 > 100 µM | PC-3 19.3 µM

CCCCNS(=O)(=O)c1n[nH]c(=O)[nH]c1=O
inactive: OVCAR-3 > 100 µM | DU-145 > 100 µM | UACC-62 > 100 µM | HCT-116 > 100 µM | NCI-H522 > 100 µM | SN12C > 100 µM | SK-MEL-28 > 100 µM | 786-0 > 100 µM | KM12 > 100 µM | U-251 > 100 µM | EKVX > 100 µM | SF-295 16.9 µM | MDA-MB-231 > 100 µM | MCF7 > 100 µM | SNB-19 > 100 µM | OVCAR-4 > 100 µM | PC-3 > 100 µM

CC1OC(n2cc(F)c(=O)[nH]c2=O)C(O[Si](C)(C)C(C)(C)C)C1O[Si](C)(C)C(C)(C)C (centres undefined)
inactive: HCC 2998 13.4 µM | OVCAR-3 15 µM | DU-145 13.6 µM | UACC-62 14.8 µM | HCT-116 13.9 µM | NCI-H522 4.34 µM | SN12C 12.4 µM | 786-0 14.6 µM | KM12 11.9 µM | U-251 13.9 µM | EKVX 16.9 µM | SF-295 11.5 µM | MDA-MB-231 5.78 µM | MCF7 6.76 µM | SNB-19 14.7 µM | UACC-257 17.7 µM | OVCAR-4 6.41 µM | PC-3 11 µM

Cc1cc(C#N)c[n+](C)c1
inactive: HCC 2998 > 100 µM | OVCAR-3 > 100 µM | DU-145 > 100 µM | UACC-62 > 100 µM | HCT-116 > 100 µM | NCI-H522 > 100 µM | SN12C > 100 µM | SK-MEL-28 > 100 µM | 786-0 > 100 µM | KM12 > 100 µM | U-251 > 100 µM | EKVX > 100 µM | SF-295 > 100 µM | MDA-MB-231 > 100 µM | MCF7 > 100 µM | SNB-19 > 100 µM | UACC-257 > 100 µM | OVCAR-4 > 100 µM | PC-3 > 100 µM

CCOC(=O)NC(Nc1ccc(S(=O)(=O)Nc2nc(C)cc(C)n2)cc1)(C(=O)OCC)C(F)(F)F (centres undefined)
inactive: HCC 2998 > 100 µM | OVCAR-3 > 100 µM | DU-145 > 100 µM | UACC-62 > 100 µM | HOP-92 > 100 µM | HCT-116 > 100 µM | SN12C > 100 µM | SK-MEL-28 > 100 µM | 786-0 > 100 µM | KM12 > 100 µM | U-251 > 100 µM | EKVX > 100 µM | SF-295 > 100 µM | MDA-MB-231 > 100 µM | MCF7 > 100 µM | SNB-19 > 100 µM | OVCAR-4 > 100 µM | PC-3 > 100 µM

COc1ccc(CN/C=N/C(C#N)=C(\N)C#N)cc1OC
inactive: HCC 2998 > 100 µM | OVCAR-3 > 100 µM | DU-145 > 100 µM | UACC-62 > 100 µM | HCT-116 > 100 µM | NCI-H522 > 100 µM | SN12C > 100 µM | SK-MEL-28 > 100 µM | 786-0 > 100 µM | KM12 > 100 µM | U-251 > 100 µM | EKVX > 100 µM | SF-295 > 100 µM | MDA-MB-231 > 100 µM | MCF7 > 100 µM | SNB-19 > 100 µM | UACC-257 > 100 µM | OVCAR-4 > 100 µM | PC-3 > 100 µM

COc1cccc(/N=N/C(=N\NC(=O)c2ccc(C)cc2)c2ccc(N(CCC#N)CCC#N)cc2C)c1
inactive: HCC 2998 > 100 µM | OVCAR-3 37.6 µM | DU-145 > 100 µM | HOP-92 > 100 µM | HCT-116 68.1 µM | SN12C > 100 µM | SK-MEL-28 > 100 µM | 786-0 > 100 µM | KM12 73.5 µM | U-251 > 100 µM | EKVX 66.5 µM | SF-295 85.7 µM | MDA-MB-231 63.1 µM | MCF7 32.1 µM | SNB-19 > 100 µM | UACC-257 42.8 µM | OVCAR-4 25.1 µM | PC-3 64.6 µM

O=C(Nc1ccccc1)c1nn(-c2cc(S(=O)(=O)O)c([N+](=O)[O-])cc2Cl)[n+](-c2cc(S(=O)(=O)[O-])c([N+](=O)[O-])cc2Cl)n1
inactive: HCC 2998 > 100 µM | OVCAR-3 > 100 µM | DU-145 > 100 µM | UACC-62 > 100 µM | HCT-116 > 100 µM | NCI-H522 > 100 µM | SN12C > 100 µM | SK-MEL-28 > 100 µM | 786-0 > 100 µM | KM12 > 100 µM | U-251 > 100 µM | EKVX > 100 µM | SF-295 > 100 µM | MDA-MB-231 43.6 µM | MCF7 > 100 µM | SNB-19 > 100 µM | UACC-257 > 100 µM | OVCAR-4 > 100 µM | PC-3 > 100 µM
